Reference: ChEMBL document CHEMBL5029171, “Dynamics of Post-Translational Modification Inspires Drug Design in the Kinase Family” (J Med Chem, 2021)

Columns and labels:
[1] = target: Proto-oncogene tyrosine-protein kinase Src (Homo sapiens) (UniProt P12931); assay: Inhibition of human recombinant flag-tagged c-Src protein (86 to 536 residues) catalytic activity expressed in Escherichia coli BL21 (DE3) cells at 50 uM using biotinylated TK-substrate peptide as substrate preincubated for 1 hr followed by substrate addition and measured after 1 hr by HTRF assay relative to control; details: time 2.0 hrs
[2] = target: Proto-oncogene tyrosine-protein kinase Src (Homo sapiens) (UniProt P12931); assay: Binding affinity to human recombinant flag-tag c-Src protein (86 to 536 residues) expressed in Escherichia coli BL21 (DE3) cells assessed as change in melting temperature at 1:5 ratio incubated for 25 mins by protein thermal shift assay
[3] = target: Proto-oncogene tyrosine-protein kinase Src (Homo sapiens) (UniProt P12931); assay: Binding affinity to human recombinant flag-tag c-Src protein (86 to 536 residues) expressed in Escherichia coli BL21 (DE3) cells assessed as change in melting temperature at 1:10 ratio incubated for 25 mins by protein thermal shift assay
[4] = target: Proto-oncogene tyrosine-protein kinase Src (Homo sapiens) (UniProt P12931); assay: Binding affinity to human recombinant flag-tag c-Src protein (86 to 536 residues) expressed in Escherichia coli BL21 (DE3) cells assessed as change in melting temperature at 1:20 ratio incubated for 25 mins by protein thermal shift assay

Proto-oncogene tyrosine-protein kinase Src (Homo sapiens), sequence (P12931 2-536 limits assumed): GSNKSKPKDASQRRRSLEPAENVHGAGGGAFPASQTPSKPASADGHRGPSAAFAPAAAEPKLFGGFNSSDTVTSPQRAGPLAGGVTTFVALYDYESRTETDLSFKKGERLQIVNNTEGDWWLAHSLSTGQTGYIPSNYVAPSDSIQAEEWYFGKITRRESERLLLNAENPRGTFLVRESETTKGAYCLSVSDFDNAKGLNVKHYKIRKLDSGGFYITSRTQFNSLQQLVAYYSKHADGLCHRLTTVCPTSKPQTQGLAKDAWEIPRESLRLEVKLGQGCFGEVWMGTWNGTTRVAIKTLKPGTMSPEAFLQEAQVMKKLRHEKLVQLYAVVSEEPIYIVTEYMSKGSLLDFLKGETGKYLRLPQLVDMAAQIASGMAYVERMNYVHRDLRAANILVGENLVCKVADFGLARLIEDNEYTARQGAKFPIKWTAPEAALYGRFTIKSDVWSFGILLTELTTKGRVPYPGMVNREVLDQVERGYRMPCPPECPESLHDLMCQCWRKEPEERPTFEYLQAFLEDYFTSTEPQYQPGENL

With `O=C(NC1CCCC1)C(c1ccc(Cl)cc1)N(Cc1cccs1)C(=O)CCl` (stereo unspecified) the inhibition [1] was over 60%.

For `COc1ccc(C(C(=O)NC2CCCC2)N(CCC2=CCCCC2)C(=O)CCl)cc1` (stereo unspecified), the inhibition [1] was over 60%.

For `O=C(NC1CCCC1)C(c1ccc(F)cc1)N(C(=O)CCl)C1CC1` (stereo unspecified), the ΔTm [2] was 1.5 °C, the inhibition [1] was over 60% and the ΔTm [3] was 2.56 °C. It also gave a ΔTm [4] of 3.3 °C.
